# Test system: pdr5 ypt1^ts cells
# Assay: microbe, parasite or virus in culture
# Type: cell-based, yeast
# Conditions: not given
# Text: The activity of the compounds as modulators of protein trafficking may be measured in the assays described herein that evaluate the ability of a compound to rescue an impairment in protein trafficking. For example, the yeast mutant cell line ypt1^ts can be used to identify compounds that rescue cells from the lethal phenotype of a mutant YPT1 allele (see, e.g., Examples and Schmitt et al. (1988) Cell 53:635-47). The activity may be measured, for example, in a whole yeast cell assay using 384-well screening protocol and an optical density measurement.
# The yeast mutant cell line ypt1^ts suppresses, in a temperature dependent fashion, the dominant-lethal phenotype of a mutant YPT1 allele (Schmitt et al. (1988) Cell 53:635-47). ypt1^ts cells grow normally at temperatures up to 30° C., but are growth arrested at 37° C. (Id.).
# A library of compounds (“The Spectrum Collection”) obtained from Microsource Discovery Systems, Inc. (Gaylordsville, Conn.) was screened to assess the ability of individual compounds to restore growth of ypt1^ts cells. Screening was carried out using ypt1^ts cells containing a mutation in the pdr5 gene (resulting in inactivation of a membrane efflux pump). The effect of the compounds was measured in pdr5 ypt1^ts cells cultured at 37° C.
Compound,"optical density, 3.13 uM","optical density, 12.5 uM","optical density, 50 uM"
"Cl.Clc1cccc(Cl)c1N=C1NCCN1 [CLONIDINE HYDRO- CHLORIDE, reference compound]",0.237,0.095,0.064

# Same assay, conditions: Saccharomyces cerevisiae; Table 2; lowest concentration tested giving growth above the 0 μM background; 37° C.; read-out: ypt1-ts MRC (minimal rescue concentration)
row,Compound,minimal effective concentration [µM]
1,CC1(C)C(=O)C=C[C@@]2(C)C1=C(O)C(=O)[C@]1(C)[C@@H]2CC[C@@]2(C)[C@H](c3ccoc3)C[C@H]3O[C@]321 [CEDRELONE],1.56
2,O=C1c2ccccc2-c2cccc3cccc1c23 [BENZANTHRONE],3.13
3,"CCOC(=O)c1c(C)cc(O)c(C)c1O [METHYL[…], ETHYL ESTER]",25
4,"CCCCC1(COC(=O)CCC(=O)O)C(=O)N(c2ccccc2)N(c2ccccc2)C1=O [SUXIBUZONE, reference compound]",3.13
5,O=c1c2ccccc2oc2ccccc12 [XANTHONE],6.25

# Same assay, conditions: Table 2; 0.39 μM compound; 37° C.; background (0 μM) 0.058
row,Compound,"optical density, ypt1-ts, 0.39"
1,CC1(C)C(=O)C=C[C@@]2(C)C1=C(O)C(=O)[C@]1(C)[C@@H]2CC[C@@]2(C)[C@H](c3ccoc3)C[C@H]3O[C@]321 [CEDRELONE],0.221
2,O=C1c2ccccc2-c2cccc3cccc1c23 [BENZANTHRONE],0.108
3,"CCOC(=O)c1c(C)cc(O)c(C)c1O [METHYL[…], ETHYL ESTER]",0.082
4,"CCCCC1(COC(=O)CCC(=O)O)C(=O)N(c2ccccc2)N(c2ccccc2)C1=O [SUXIBUZONE, reference compound]",0.101
5,O=c1c2ccccc2oc2ccccc12 [XANTHONE],0.096

# Same assay, conditions: Table 2; 0.78 μM compound; 37° C.; background (0 μM) 0.058
row,Compound,"optical density, ypt1-ts, 0.78"
1,CC1(C)C(=O)C=C[C@@]2(C)C1=C(O)C(=O)[C@]1(C)[C@@H]2CC[C@@]2(C)[C@H](c3ccoc3)C[C@H]3O[C@]321 [CEDRELONE],0.124
2,O=C1c2ccccc2-c2cccc3cccc1c23 [BENZANTHRONE],0.09
3,"CCOC(=O)c1c(C)cc(O)c(C)c1O [METHYL[…], ETHYL ESTER]",0.073
4,"CCCCC1(COC(=O)CCC(=O)O)C(=O)N(c2ccccc2)N(c2ccccc2)C1=O [SUXIBUZONE, reference compound]",0.078
5,O=c1c2ccccc2oc2ccccc12 [XANTHONE],0.072

# Same assay, conditions: Table 2; 1.56 μM compound; 37° C.; background (0 μM) 0.058
row,Compound,"optical density, ypt1-ts, 1.56"
1,CC1(C)C(=O)C=C[C@@]2(C)C1=C(O)C(=O)[C@]1(C)[C@@H]2CC[C@@]2(C)[C@H](c3ccoc3)C[C@H]3O[C@]321 [CEDRELONE],0.264
2,O=C1c2ccccc2-c2cccc3cccc1c23 [BENZANTHRONE],0.123
3,"CCOC(=O)c1c(C)cc(O)c(C)c1O [METHYL[…], ETHYL ESTER]",0.072
4,"CCCCC1(COC(=O)CCC(=O)O)C(=O)N(c2ccccc2)N(c2ccccc2)C1=O [SUXIBUZONE, reference compound]",0.093
5,O=c1c2ccccc2oc2ccccc12 [XANTHONE],0.093

# Same assay, conditions: Table 2; 3.13 μM compound; 37° C.; background (0 μM) 0.058
row,Compound,"optical density, ypt1-ts, 3.13"
1,CC1(C)C(=O)C=C[C@@]2(C)C1=C(O)C(=O)[C@]1(C)[C@@H]2CC[C@@]2(C)[C@H](c3ccoc3)C[C@H]3O[C@]321 [CEDRELONE],0.49
2,O=C1c2ccccc2-c2cccc3cccc1c23 [BENZANTHRONE],0.263
3,"CCOC(=O)c1c(C)cc(O)c(C)c1O [METHYL[…], ETHYL ESTER]",0.084
4,"CCCCC1(COC(=O)CCC(=O)O)C(=O)N(c2ccccc2)N(c2ccccc2)C1=O [SUXIBUZONE, reference compound]",0.127
5,O=c1c2ccccc2oc2ccccc12 [XANTHONE],0.109

# Same assay, conditions: Table 2; 6.25 μM compound; 37° C.; background (0 μM) 0.058
row,Compound,"optical density, ypt1-ts, 6.25"
1,CC1(C)C(=O)C=C[C@@]2(C)C1=C(O)C(=O)[C@]1(C)[C@@H]2CC[C@@]2(C)[C@H](c3ccoc3)C[C@H]3O[C@]321 [CEDRELONE],0.532
2,O=C1c2ccccc2-c2cccc3cccc1c23 [BENZANTHRONE],0.491
3,"CCOC(=O)c1c(C)cc(O)c(C)c1O [METHYL[…], ETHYL ESTER]",0.097
4,"CCCCC1(COC(=O)CCC(=O)O)C(=O)N(c2ccccc2)N(c2ccccc2)C1=O [SUXIBUZONE, reference compound]",0.173
5,O=c1c2ccccc2oc2ccccc12 [XANTHONE],0.152

# Same assay, conditions: Table 2; 12.5 μM compound; 37° C.; background (0 μM) 0.058
row,Compound,"optical density, ypt1-ts, 12.5"
1,CC1(C)C(=O)C=C[C@@]2(C)C1=C(O)C(=O)[C@]1(C)[C@@H]2CC[C@@]2(C)[C@H](c3ccoc3)C[C@H]3O[C@]321 [CEDRELONE],0.541
2,O=C1c2ccccc2-c2cccc3cccc1c23 [BENZANTHRONE],0.547
3,"CCOC(=O)c1c(C)cc(O)c(C)c1O [METHYL[…], ETHYL ESTER]",0.119
4,"CCCCC1(COC(=O)CCC(=O)O)C(=O)N(c2ccccc2)N(c2ccccc2)C1=O [SUXIBUZONE, reference compound]",0.329
5,O=c1c2ccccc2oc2ccccc12 [XANTHONE],0.445

# Same assay, conditions: Table 2; 25 μM compound; 37° C.; background (0 μM) 0.058
row,Compound,"optical density, ypt1-ts, 25"
1,CC1(C)C(=O)C=C[C@@]2(C)C1=C(O)C(=O)[C@]1(C)[C@@H]2CC[C@@]2(C)[C@H](c3ccoc3)C[C@H]3O[C@]321 [CEDRELONE],0.496
2,O=C1c2ccccc2-c2cccc3cccc1c23 [BENZANTHRONE],0.383
3,"CCOC(=O)c1c(C)cc(O)c(C)c1O [METHYL[…], ETHYL ESTER]",0.259
4,"CCCCC1(COC(=O)CCC(=O)O)C(=O)N(c2ccccc2)N(c2ccccc2)C1=O [SUXIBUZONE, reference compound]",0.536
5,O=c1c2ccccc2oc2ccccc12 [XANTHONE],0.598

# Same assay, conditions: Table 3; 3.13 uM compound; 37° C.; background (0 uM) 0.077
row,Compound,"optical density, 3.13 uM"
1,COC(=O)C[C@H]1C(C)(C)C(=O)[C@@H]2CC3=C4CC(OC)O[C@@H](c5ccoc5)[C@]4(C)CCC3[C@@]1(C)C2=O (stereo partly shown) [16-DEOXO- MEXICANOLIDE 16-METHYL ETHER],0.3
2,"C[n+]1c2cc(N)ccc2cc2ccc(N)cc21.[Cl-] [ACRIFLAV- INIUM HYDRO- CHLORIDE, reference compound]",0.126
3,C#CCCCCCCCCCCCC(O)CC(O)CO (stereo not shown) [AVO- CADYNE],0.132
4,COc1ccc(C(=O)c2ccccc2)c(O)c1O [3-DESMETHYL- 5-DES- HYDROXY- SCLEROIN],0.11
5,CC1(C)C(=O)C=C[C@@]2(C)C1CC(=O)[C@@]1(C)C3=CC(=O)O[C@@H](c4ccoc4)[C@]3(C)CCC12 (stereo partly shown) [7-DEACETOXY- 7-OXODEOXY- GEDUNIN],0.335
6,COc1c2c(cc3c1OCO3)[C@]13C=C[C@H](OC)C[C@H]1N(C2)C[C@@H]3O [AMBELLINE],0.071
7,COc1ccc(/C=C/c2cc(O)cc(O)c2)cc1 [RESVERA- TROL 4′- METHYL ETHER],0.08

# Same assay, conditions: Table 3; 12.5 uM compound; 37° C.; background (0 uM) 0.077
row,Compound,"optical density, 12.5 uM"
1,COC(=O)C[C@H]1C(C)(C)C(=O)[C@@H]2CC3=C4CC(OC)O[C@@H](c5ccoc5)[C@]4(C)CCC3[C@@]1(C)C2=O (stereo partly shown) [16-DEOXO- MEXICANOLIDE 16-METHYL ETHER],0.528
2,"C[n+]1c2cc(N)ccc2cc2ccc(N)cc21.[Cl-] [ACRIFLAV- INIUM HYDRO- CHLORIDE, reference compound]",0.229
3,C#CCCCCCCCCCCCC(O)CC(O)CO (stereo not shown) [AVO- CADYNE],0.425
4,COc1ccc(C(=O)c2ccccc2)c(O)c1O [3-DESMETHYL- 5-DES- HYDROXY- SCLEROIN],0.149
5,CC1(C)C(=O)C=C[C@@]2(C)C1CC(=O)[C@@]1(C)C3=CC(=O)O[C@@H](c4ccoc4)[C@]3(C)CCC12 (stereo partly shown) [7-DEACETOXY- 7-OXODEOXY- GEDUNIN],0.604
6,COc1c2c(cc3c1OCO3)[C@]13C=C[C@H](OC)C[C@H]1N(C2)C[C@@H]3O [AMBELLINE],0.302
7,COc1ccc(/C=C/c2cc(O)cc(O)c2)cc1 [RESVERA- TROL 4′- METHYL ETHER],0.103

# Same assay, conditions: Table 3; 50 uM compound; 37° C.; background (0 uM) 0.077
row,Compound,"optical density, 50 uM"
1,COC(=O)C[C@H]1C(C)(C)C(=O)[C@@H]2CC3=C4CC(OC)O[C@@H](c5ccoc5)[C@]4(C)CCC3[C@@]1(C)C2=O (stereo partly shown) [16-DEOXO- MEXICANOLIDE 16-METHYL ETHER],0.55
2,"C[n+]1c2cc(N)ccc2cc2ccc(N)cc21.[Cl-] [ACRIFLAV- INIUM HYDRO- CHLORIDE, reference compound]",0.151
3,C#CCCCCCCCCCCCC(O)CC(O)CO (stereo not shown) [AVO- CADYNE],0.265
4,COc1ccc(C(=O)c2ccccc2)c(O)c1O [3-DESMETHYL- 5-DES- HYDROXY- SCLEROIN],0.556
5,CC1(C)C(=O)C=C[C@@]2(C)C1CC(=O)[C@@]1(C)C3=CC(=O)O[C@@H](c4ccoc4)[C@]3(C)CCC12 (stereo partly shown) [7-DEACETOXY- 7-OXODEOXY- GEDUNIN],0.67
6,COc1c2c(cc3c1OCO3)[C@]13C=C[C@H](OC)C[C@H]1N(C2)C[C@@H]3O [AMBELLINE],0.057
7,COc1ccc(/C=C/c2cc(O)cc(O)c2)cc1 [RESVERA- TROL 4′- METHYL ETHER],0.331
